Laboratory results as given in patent US20240181006A1, “POLYPEPTIDES BINDING ADAMTS5, MMP13 AND AGGRECAN” (Merck Patent GmbH, priority 2017, published 2024).

Legend:
[1] = test system: bovine cartilage explants; assay: bovine cartilage explant assay, IL-1α, GAG release (polypeptide 949); format: cell-based; conditions: 5 days with IL-1α, FIG. 3
Description: FIG. 3: Efficacy of polypeptide 949 (“NB949”) in bovine cartilage explant assay.
In short, the polypeptide was incubated with bovine cartilage explants that were cultured 5 days with IL-1α to induce an OA-like cartilage degradation process. Within 5 days, degradation of primarily Aggrecan ensues, whereas Collagen degradation only occurs after about two weeks, i.e., after termination of the experiments described here. At the end of the experiment, the GAG (mainly derived from Aggrecan) which was released from the degrading cartilage into the culture supernatant was quantified.

[2] = test system: human cartilage explants; assay: human cartilage explant assay, IL-1β + OSM, GAG release; format: cell-based; conditions: reference set at 100%, FIG. 4
Description: FIG. 4: Efficacy of polypeptide 949 in a human cartilage explant assay.
Polypeptide 949 (M-A-C-C: 62C02-2F03-114F08-114F08) was tested in human cartilage explant assays for inhibition of cartilage degradation. Briefly, the polypeptide was incubated with human cartilage explants that were cultured 7 days with IL-1β+Oncostatin M (OSM). Within 7 days, degradation of primarily Aggrecan ensues, whereas Collagen degradation only occurs after about two weeks, i.e., after termination of the experiments described here. At the end of the experiment, the GAG (mainly derived from Aggrecan) which was released from the degrading cartilage into the culture supernatant was quantified. The IC50 was calculated on the basis of the negative control level (=GAG release from explants without additional stimulus) and the IL-1 β+OSM level, as measure for maximal GAG loss. GAG is shown as GAG release (in μg) per mg cartilage of each individual explant.

## CC(C)(Cc1ccc(F)cc1)NC(=O)[C@H](CCC(=O)O)NC(=O)c1ccc(-c2ccccc2)cc1 [AGG-523]
[1]
  inhibition of bovine cartilage degradation (IL-1α stimulated GAG release): fully inhibits
[2]
  inhibition of stimulated GAG release in human cartilage explant assay: fully inhibits
